Assay results reported in the METLIN SMRT retention time set (Domingo-Almenara et al. 2019).

Assay: gradient 5% acetonitrile 3 min, to 50% in 2 min, to 85% in 15 min, held 3 min, 100 µL/min
Details: column: Zorbax Extend-C18 2.1 x 50 mm; eluents: water / acetonitrile, 0.1% formic acid
Outline: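 Each retention time is based on an adduct peak selected computationally and verified by manual inspection. Measurements used HPLC–quadrupole time-of-flight mass spectrometry in positive and negative ionization mode on mixtures of ~100 pure standards. Chromatography ran on a Zorbax Extend-C18 column (2.1 × 50 mm, 1.8 μm) at 100 μL/min with water and acetonitrile, each containing 0.1% formic acid, and dead and dwell volumes of 40 μL and 900 μL.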
Work on `CCC(C)NC(=O)CC1Sc2ncccc2N(C)C1=O` (configuration not stated) yielded an RP-LC retention time of 632 s. Compound `CCN1C(=O)c2cc(S(=O)(=O)Nc3ccc(F)cc3)ccc2Oc2cccnc21` has an RP-LC retention time of 957 s. For `COc1ccc(-c2noc(C3CCCN3C(=O)C3CCC3)n2)cc1` (configuration not stated), the RP-LC retention time was 899 s. Work on `CCc1nnc2nc(N3CCN(C(=O)Cc4cccs4)CC3)cc(C)n12` yielded an RP-LC retention time of 613 s. With `COc1cc(NC(=O)Nc2nccn(-c3ccc(Cl)cc3)c2=O)cc(OC)c1` the RP-LC retention time was 970 s. `CC(C)Cn1nc(CNC(=O)c2ccsc2)c2ccccc21` gave an RP-LC retention time of 882 s. `Cn1c(=O)sc2cc(S(=O)(=O)N3CCC(C(=O)NCc4ccc5c(c4)OCO5)CC3)ccc21` showed an RP-LC retention time of 784 s. In the case of `COc1ccc(Br)cc1CNC(=O)C1CCCN(C(=O)c2[nH]c(C)cc2C)C1` (configuration not stated), the RP-LC retention time is reported as 808 s. `NC(N)=NCCC[C@H](NC(=O)c1sccc1NS(=O)(=O)c1cccc2nsnc12)C(=O)O` gave an RP-LC retention time of 685 s. In the case of `O=C(CC(c1cccs1)n1cccc1)N1CCN(c2ccccn2)CC1` (configuration not stated), the RP-LC retention time is reported as 659 s. `Cc1cccc(Nc2cc(C)nc3ccnn23)c1` showed an RP-LC retention time of 613 s. `O=C(CCCS(=O)(=O)c1ccc(F)cc1)Nc1nc2c(s1)COc1ccccc1-2` showed an RP-LC retention time of 872 s. `Cc1nn(-c2nc(CC(=O)Nc3nc(-c4ccccc4)cs3)cs2)c(C)c1Cl` showed an RP-LC retention time of 1270 s. For `CCC(C(=O)NCCc1c[nH]c2ccc(Cl)cc12)n1c2ccccc2c2cnn(C)c(=O)c21` (configuration not stated), the RP-LC retention time was 986 s. For `COC(=O)c1ccc2c(=O)n(-c3cccc(Cl)c3)c(N3CCOCC3)nc2c1`, the RP-LC retention time was 998 s. For `O=C(NC1CCN(c2cc(N3CCOCC3)cnn2)C1)C1CCCC1` (configuration not stated), the RP-LC retention time was 548 s. For `COc1ccc(S(=O)(=O)NCc2c(-c3ccccc3)nc3sc(C)nn23)cc1`, the RP-LC retention time was 832 s. `Cc1cc(C)cc(C(=O)N2CCCC(C(=O)NCCC3=CCCCC3)C2)c1` (configuration not stated) showed an RP-LC retention time of 980 s. In the case of `Cc1nc(-c2cc(S(=O)(=O)Nc3ccccc3Cl)c(C)s2)sc1C`, the RP-LC retention time is reported as 1120 s. With `O=C(NCCCN1CCCC1)c1ccc2c(c1)nnn2Cc1ccccc1` the RP-LC retention time was 628 s. Work on `O=C(c1csc(N2CCN(c3ccc(F)cc3)CC2)n1)N1CCCCC1` yielded an RP-LC retention time of 1000 s. In the case of `CC(=O)NC(Cc1c[nH]c2ccccc12)C(=O)O` (configuration not stated), the RP-LC retention time is reported as 605 s. For `Cc1ncn(CC(=O)Nc2ccccc2F)c(=O)c1C`, the RP-LC retention time was 628 s. Work on `CCCNC(=O)c1cc2c(-c3cccs3)nn(-c3ccccc3)c2n1CC` yielded an RP-LC retention time of 1100 s. In the case of `CCOc1ccc(NC(=O)N(C)CCc2noc(C3CCCCC3)n2)cc1`, the RP-LC retention time is reported as 942 s. `CCc1nc(OCC(=O)Nc2ccc(Cl)cc2Cl)c2ccccc2n1` showed an RP-LC retention time of 937 s. Compound `CCc1nc(N)n(CC(=O)NCc2ccccc2)c(=O)c1C` has an RP-LC retention time of 623 s. Compound `COCc1noc([C@@H]2CN(Cc3cccc(OC)n3)C[C@H]2COC)n1` has an RP-LC retention time of 612 s. Compound `COc1ccc2[nH]c(=O)c(CCC(=O)NCCN(C)C3CCCCC3)cc2c1` has an RP-LC retention time of 598 s. With `Cc1ccccc1Oc1nccn2c(=O)n(CC(=O)Nc3ccc(F)cc3F)nc12` the RP-LC retention time was 829 s. In the case of `O=C(CCc1nc(CSc2nnc(-c3ccccc3)o2)no1)Nc1ccc(F)cc1`, the RP-LC retention time is reported as 892 s. In the case of `Cc1nnc2ccc(S(=O)(=O)N(Cc3ccccc3)c3cccc(F)c3)cn12`, the RP-LC retention time is reported as 866 s. `Cc1ccc(-c2noc(C3CCCN3S(=O)(=O)c3ccc(Cl)cc3C)n2)cc1` (configuration not stated) showed an RP-LC retention time of 1320 s. `CCc1ccc(-c2noc(CSc3nc4cc5c(cc4c(=O)n3CCOC)OCO5)n2)cc1` gave an RP-LC retention time of 1190 s. `COc1ccc(OC)c(S(=O)(=O)N2CCc3nc(-c4ccccc4)ncc3C2)c1` showed an RP-LC retention time of 998 s. Work on `Cc1ccc2cc(CCC(=O)NC3CCN(Cc4ccccc4)CC3)c(=O)[nH]c2c1` yielded an RP-LC retention time of 614 s. For `CCc1ccc2[nH]c3c(c(=O)c2c1)CN(CC(=O)NCc1cccc(Cl)c1)CC3`, the RP-LC retention time was 642 s. `Cc1nn(-c2nc(-c3ccc(Cl)cc3)cs2)c(C)c1CC(=O)Nc1ccccc1F` showed an RP-LC retention time of 1260 s. For `CN(Cc1nc2cc(C(=O)N3CCCC3)ccc2n1C)C(=O)Nc1ccc2c(c1)OCCO2`, the RP-LC retention time was 688 s. `COc1ccccc1CCNC(=O)Cc1csc(NC(=O)c2ccco2)n1` showed an RP-LC retention time of 700 s. With `CCCS(=O)(=O)c1nc2ccc(NS(=O)(=O)c3ccc4c(c3)oc(=O)n4C)cc2s1` the RP-LC retention time was 847 s. In the case of `CCOC(=O)CNC(=O)N1CCCC1c1ccc(OC)cc1` (configuration not stated), the RP-LC retention time is reported as 728 s. In the case of `Cc1ccc(Cl)c2c1NC(=O)C2(O)CC(=O)c1ccccc1` (configuration not stated), the RP-LC retention time is reported as 760 s. In the case of `Cc1ccc2c(c1)N(S(C)(=O)=O)CCC(C(=O)Nc1ccccc1C)O2` (configuration not stated), the RP-LC retention time is reported as 894 s. In the case of `CN1CCN(CCNC(=O)c2cccc(N3CCNC(c4ccccc4)C3)n2)CC1` (configuration not stated), the RP-LC retention time is reported as 549 s. With `O=C(c1ccn[nH]1)N1C[C@@H]2C(=O)N(CCc3ccccc3)C(=O)[C@@H]2C1` the RP-LC retention time was 656 s. For `Cc1ccc(CN2CCCC(c3nc(C(C)C)no3)CCNC(=O)CC2)o1` (configuration not stated), the RP-LC retention time was 636 s. In the case of `Cc1cccc(C)c1Nc1c(-c2ccccc2)nc2cnccn12`, the RP-LC retention time is reported as 865 s. `CN1CCCn2cc(S(=O)(=O)NCCc3ccc(Cl)cc3)cc2C1=O` gave an RP-LC retention time of 752 s. With `Cc1nn(-c2ccccc2)c(C)c1S(=O)(=O)N1CCC(C(=O)Nc2cccc(F)c2)CC1` the RP-LC retention time was 986 s. In the case of `Cc1nnc(-c2cc(C)n(CC(=O)Nc3cccc(Cl)c3)c2C)o1`, the RP-LC retention time is reported as 805 s. For `O=C(Nc1ccc(OCC(=O)N2CCN(c3ccccc3Cl)CC2)nc1)C1CC1`, the RP-LC retention time was 818 s. For `O=C(Nc1cnn(-c2ncc(N3CCCCC3)cn2)c1)NC1CCCC1`, the RP-LC retention time was 754 s. `COc1ccc(OC)c(S(=O)(=O)N2CCOc3ccc(NC(=O)C4CC4)cc3C2)c1` showed an RP-LC retention time of 823 s. In the case of `CCc1ccccc1N1C(=O)CN(S(C)(=O)=O)CC1(C)C(=O)NCc1ccccc1` (configuration not stated), the RP-LC retention time is reported as 804 s. `CC1(C(=O)NCc2ccccc2)CCCN(C(=O)NCc2ccc(F)cc2)C1` (configuration not stated) gave an RP-LC retention time of 831 s. `O=C(CSc1nnc(CNC(=O)c2ccc(F)cc2)o1)NCc1ccc2c(c1)OCO2` gave an RP-LC retention time of 672 s. For `c1cnc(N2CCN(c3nn4nnnc4c4ccccc34)CC2)nc1`, the RP-LC retention time was 807 s. With `COc1ccc(OCc2noc(CNC(=O)c3oc4cc(OC)ccc4c3C)n2)cc1` the RP-LC retention time was 925 s. `CCCN(C(=O)Nc1ccccc1C(=O)OCC)c1nc(-c2ccc(C3CCCCC3)cc2)cs1` gave an RP-LC retention time of 630 s. `CCC(=O)N(CCC1CCOC(C)(C)C1)Cc1ccc(OC)cc1` (configuration not stated) gave an RP-LC retention time of 896 s. With `O=C(CCc1ccccc1)Nc1ccc2c(c1)CCCN2C(=O)c1ccco1` the RP-LC retention time was 861 s. Compound `O=C(c1cc2ccccc2[nH]1)N1CC2CN(S(=O)(=O)c3cccc(F)c3)CC(C1)O2` has an RP-LC retention time of 862 s. With `Cc1ccc(C)c(S(=O)(=O)N2CCC3(CC2)NCCCN=C3NC2CCCCC2)c1` the RP-LC retention time was 648 s. Work on `COc1ccc(C)cc1NC(=O)Cn1nc2cc(-c3ccccn3)nc(C)n2c1=O` yielded an RP-LC retention time of 804 s. `Cc1ccc(-c2noc(C3CCCN3S(=O)(=O)c3cc(C)ccc3C)n2)cc1` (configuration not stated) gave an RP-LC retention time of 1240 s. With `O=C(NCc1cccc(Br)c1)c1cn2nc(Cl)ccc2n1` the RP-LC retention time was 867 s. For `Cc1ccc(C)c(NC(=O)C2CCN(S(=O)(=O)c3cc(-c4noc(C5CC5)n4)cs3)CC2)c1`, the RP-LC retention time was 1020 s. `O=C(Cn1c(=O)cc(-c2nc(C3CC3)no2)c2ccccc21)Nc1cccc(F)c1` gave an RP-LC retention time of 952 s. For `CN1CCC[C@@H]1Cc1c[nH]c2ccc(CCS(=O)(=O)c3ccccc3)cc12`, the RP-LC retention time was 604 s. For `N#Cc1nc(-c2ccc(COc3ccc(Cl)cc3)o2)oc1NCCCn1ccnc1`, the RP-LC retention time was 627 s. `Cc1cc(-c2nnc(-c3ccco3)o2)c(C)n1CC(=O)NCc1ccc(F)cc1F` gave an RP-LC retention time of 857 s. For `Cc1cc(N2CCN(C)CC2)nc2ccc(NC(=S)N3CCN(c4ccc(F)cc4)CC3)cc12`, the RP-LC retention time was 606 s. Work on `CCc1ccc(NC(=O)Cn2nc3n(c2=O)CCCCC3)cc1` yielded an RP-LC retention time of 709 s. Compound `CC(=O)N1CCC(C(=O)NCc2nn(Cc3ccccc3)c3ccccc23)CC1` has an RP-LC retention time of 728 s. For `Cc1oc(C2CCN(S(=O)(=O)c3ccccc3)CC2)nc1C(=O)N1CCOCC1`, the RP-LC retention time was 758 s. `COc1ccc(-n2ccn3cc(-c4ccc(F)cc4)nc3c2=O)cc1Cl` showed an RP-LC retention time of 859 s. Work on `CCN(Cc1ccccc1)C(=O)C1CCN(S(=O)(=O)c2ccc3c(c2)sc(=O)n3CC)CC1` yielded an RP-LC retention time of 953 s. Work on `O=C(Nc1ccc(N2CCOCC2)cc1)C1CCCN(c2nnc3ccccn23)C1` (configuration not stated) yielded an RP-LC retention time of 600 s. `Cc1ccc(-n2cc3c(c(C(=O)NCCCOC(C)C)c2=O)CC(C)(C)CC3=O)cc1` showed an RP-LC retention time of 997 s. `CC(C)CCn1nc2c(S(=O)(=O)N3CCc4ccccc4C3)cccn2c1=O` gave an RP-LC retention time of 1010 s. For `CC(C)c1ccc(CN2C[C@@H]3C(=O)N(CCc4ccccc4)C(=O)[C@@H]3C2)cc1`, the RP-LC retention time was 772 s. For `O=C(Nc1ccc2c(c1)CN(S(=O)(=O)c1ccc3c(c1)CCC3)CCO2)C1CC1`, the RP-LC retention time was 932 s. `CCC(=O)Nc1ccc2c(c1)nc(CN1CCN(S(C)(=O)=O)CC1)n2CC` gave an RP-LC retention time of 586 s. In the case of `Cc1cccc(-c2nnc(-c3cccc(S(=O)(=O)N4CCCCC4)c3)o2)c1`, the RP-LC retention time is reported as 1140 s. For `COc1ccc(C(=O)Nc2c(-c3ccccc3)nc3cc(C)ccn23)c(OC)c1`, the RP-LC retention time was 680 s. Compound `COc1ccc(NC(=O)Cn2c(C)nc3c(sc4nc(-c5ccccc5)ccc43)c2=O)cc1Cl` has an RP-LC retention time of 1090 s.
